Values joined by “and” are separate entries in the source; they are usually repeats but may differ in a detail not shown here. Equal values may be shown once. “Also recorded” adds a separate entry of the source. Read-outs that look alike come from different tables or passages of the source.
Columns and labels:
hPAR2 [1] = target: T1, hPAR2 (Homo sapiens, UniProt P55085); test: Ca^2+ flux assay, agonist mode, 1321N1-hPAR2 cells; type: cell-based; design: Ca^2+ mobilisation tested as agonist, Fig 1c source data / Ca2+ response (Fig 2c), individual replicate values: unit not given here; details: for Ca2+ response (Fig 2c), individual replicate values: hPAR2; for Ca^2+ mobilisation tested as agonist, Fig 1c source data: log[compound], individual data points
T1 sequence (P55085 26-397): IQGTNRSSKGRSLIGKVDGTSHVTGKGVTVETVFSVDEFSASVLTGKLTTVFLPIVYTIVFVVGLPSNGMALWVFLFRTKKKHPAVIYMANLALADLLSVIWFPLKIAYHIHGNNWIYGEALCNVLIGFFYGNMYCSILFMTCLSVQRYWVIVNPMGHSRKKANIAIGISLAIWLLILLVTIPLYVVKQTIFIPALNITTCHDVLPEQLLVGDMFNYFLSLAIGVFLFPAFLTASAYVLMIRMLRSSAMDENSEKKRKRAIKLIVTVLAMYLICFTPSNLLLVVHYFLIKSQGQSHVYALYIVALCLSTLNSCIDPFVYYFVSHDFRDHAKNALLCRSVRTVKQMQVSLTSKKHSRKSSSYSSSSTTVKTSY
Protocol: (§1) Cells were loaded with Fluo-8 NW calcium dye (AAT Bioquest) for 30 min at 37 °C before compounds in Hank’s balanced salt solution (HBSS, ThermoFisher Scientific) with 20 mM HEPES (ThermoFisher Scientific), 0.1% bovine serum albumin (BSA, Sigma) and 0.5% DMSO were added and simultaneously evaluated for changes in intracellular [Ca^2+] using FLIPR TETRA (Molecular Devices) to detect agonism. For each concentration, the difference between the maximum peak Ca^2+ response and baseline response is reported. […] Antagonism experiments were also carried out on 1321N1-PAR2[WT], 1321N1-PAR2[F154A], and 1321N1-PAR2[G157C] as described. Experiments with trypsin in 1321N1-hPAR2 cells were performed in the presence of 1 µM Vorapaxar (Chemtronica) to remove any interference of PAR1 activity. […] Antagonism experiments for CHO-hPAR2 and HT-29 cells were performed in 96-well plates at 30,000 cells/well. Cells were loaded with Fluo-3 AM calcium dye (Sigma-Aldrich) for 60 min at 37 °C in HBSS with 1% FBS, 0.2% pluronic acid, 20 mM HEPES and 2.5 mM probenecid prior to the addition of antagonist. The antagonist was pre-incubated for 60 min at 37 °C followed by the addition of bovine trypsin (30 nM) at EC80. Intracellular [Ca^2+] flux was measured using FLIPR TETRA (Molecular Devices) and the difference between the maximum peak Ca^2+ response and baseline response is reported.
(§2) Binding data were analysed using the One site – Fit Ki model in GraphPad Prism 8 (GraphPad Software) to determine binding affinity. Pharmacology in vitro potency data was analysed with a 4-parameter logistic fit using the equation y = Bottom + (Top − Bottom)/[…] where y is the response, x is the 10-logarithm of the drug concentration, Bottom is no response and Top is full response in GraphPad Prism 8 or Genedata Screener (Genedata). pEC50 and pIC50 data are presented as mean ± standard error of the mean (s.e.m.) derived from the number of independent experiments stated. Schild slope analysis was calculated using Graphpad Prism 8 Gaddum/Schild EC50 global fitting (shared model parameters between all data sets) competitive model. […] Schild slope quantifies the shifts in agonist response in the presence of antagonist, a Schild slope of 1 indicates the antagonist is competitive and extra-sum-of-squares F-test (p < 0.05) was used to compare the calculated Schild slope against a hypothetical Schild slope of 1. […] The relative activity was calculated using (EmaxEC50’)/(Emax’EC50) with the Hill slope help constant at 1. EC50’ and Emax’ denote the EC50 and Emax in the absence of allosteric modulator, while EC50 and Emax denote those measured in the presence of allosteric modulator. When the Hill slope = 1, the relative activity plot approaches an asymptote corresponding to the estimate of the γ value.

hPAR2 [2] = target: T1, hPAR2; test: Europium-tagged competition binding assay against Eu-tagged-2f-LIGRLO(dtpa)-NH2 on CHO-hPAR2 cells; design: expressed in transfected cells; host or cells: Flp-In CHO
Protocol: CHO-hPAR2 cells were seeded overnight in 384-well plate at 2.5 × 10^4 cells/well and blocked with 2% BSA for 60 min. […] Cells were washed 3× with PBS supplemented with 20 µM EDTA, 0.01% Tween and 0.2% BSA followed by addition of DELFIA Enhancement Solution (Perkin Elmer) for 90 min. Time-resolved fluorescence was measured with PHERAstar FS reader (BMG Labtech).
as §2

hPAR2 [3] = target: T1, hPAR2; test: Ca^2+ flux assay, inhibition of trypsin activation in 1321N1-hPAR2 cells (with 1 µM Vorapaxar); type: cell-based; details: for shape of inhibition of trypsin-induced Ca^2+ mobilisation: 1321N1-hPAR2 cells, 1 µM Vorapaxar; for IC50: trypsin
hPAR2 [4] = target: T1, hPAR2; test: pERK1/2 HTRF assay, inhibition of SLIGRL-NH2 in U2OS-hPAR2 cells; type: cell-based; details: for IC50: SLIGRL-NH2, U2OS-hPAR2, mean ± s.e.m., read-out: pERK1/2 (hPAR2) pIC50 (converted)
Protocol: Phosphorylation of ERK1/2 was measured in U2OS-hPAR2 cells using Phospho-ERK1/2 (Thr202/Tyr204) assay kit (64ERKPEH Cisbio) and the 2 plate manufacturer’s protocol with the following modifications. Cells were seeded in McCoy’s 5A media containing 10% FBS at 15,000 cells per well in 384-well plates and incubated overnight at 37 °C, 5% CO2. Antagonist compounds (30 µM–1 nM) were incubated with the cells for 30 min prior to the addition of agonist SLIGRL-NH2 (10 µM) at EC80 and further incubation for 5 min at 37 °C. The supernatant was removed from the wells and lysis buffer was added to the cells and incubated with shaking at room temperature for 30 min. The cell lysate was transferred into a small-volume 384-well plate containing detection antibodies and incubated for 4 h at room temperature in the dark. Plates were read for HTRF signal on PHERAstar (BMG LabTech). In addition, phosphorylation of ERK1/2 was measured in CHO-hPAR2 using AlphaLISA SureFire Ultra pERK1/2 (Thr202/Tyr204) (Perkin Elmer). Cells were seeded at a density of 2000 cells per well in a 384-well proxiplate and incubated overnight. […] After incubation, cell lysis buffer was added with shaking for 30 min. Antibodies and beads were added and incubated for 4 h at room temperature. AlphaLISA signal was measured using a PHERAstar (BMG LabTech).
as §2

hPAR2 [5] = target: T1, hPAR2; test: Ca^2+ flux assay (FLIPR), inhibition of SLIGRL-NH2 activation in 1321N1-hPAR2 cells; type: cell-based
Protocol: as §1, §2

With `CNC(=O)[C@H]1CC[C@@H](NC(=O)[C@H](CC2CCCCC2)NC(=O)c2cn(Cc3ccccc3)nn2)c2ccccc21` [AZ2429] the “higher potency than SLIGKV-NH2, Ca^2+ signalling” value (hPAR2 [1]; 1321N1-hPAR2) was 7 fold, the “lower potency than GB110, Ca^2+ signalling” value (hPAR2 [1]; 1321N1-hPAR2) was 6 fold and the EC50 (hPAR2 [1]; 1321N1-hPAR2 cells, mean ± s.e.m., read-out: Ca^2+ flux pEC50 (converted)) was 0.166 µM. The “Ca2+ response (Fig 2c), individual replicate values” (shortened to “Ca2+ response (Fig 2c)”) (hPAR2 [1]; [compound],M -4.30103) was 115.742 and 78.7868 and 73.0001 and 99.0117, the “Ca2+ response (Fig 2c)” value (hPAR2 [1]; [compound],M -4.77815) was 114.252 and 90.1883 and 78.2712 and 103.481 and the “Ca2+ response (Fig 2c)” value (hPAR2 [1]; [compound],M -5.25527) was 97.9804 and 100.329 and 107.319 and 71.9688. For the same compound, the “Ca2+ response (Fig 2c)” value (hPAR2 [1]; [compound],M -5.73239) was 87.2091 and 90.6467 and 67.5571 and 89.0425, the “Ca2+ response (Fig 2c)” value (hPAR2 [1]; [compound],M -6.20952) was 54.0357 and 69.6197 and 81.4796 and 66.5831 and the “Ca2+ response (Fig 2c)” value (hPAR2 [1]; [compound],M -6.68664) was 45.3269 and 46.8166 and 52.6033 and 41.6601. The “Ca2+ response (Fig 2c)” value (hPAR2 [1]; [compound],M -7.16376) was 19.1435 and 34.6702 and 20.5758 and 32.3784, the “Ca2+ response (Fig 2c)” value (hPAR2 [1]; [compound],M -7.64088) was 5.851 and 8.888 and 9.461 and 7.513 and the “Ca2+ response (Fig 2c)” value (hPAR2 [1]; [compound],M -8.118) was -2.628 and 1.21 and 2.414 and 2.5854. The “Ca2+ response (Fig 2c)” value (hPAR2 [1]; [compound],M -8.59512) was -2.8 and -3.316 and -1.4252 and -1.712.

For `C[C@@H](C1CCCCC1)n1c(-c2cc3c(cc2Br)OCO3)nc2cc(C(=O)Nc3ccncc3)ccc21` [AZ2623], the Ki (hPAR2 [2]; against Eu-tagged-2f-LIGRLO(dtpa)-NH2, CHO-hPAR2 cells, mean ± s.e.m., read-out: Competition Binding (hPAR2) pKi (converted)) was 0.0794 µM, the “shape of inhibition of trypsin-induced Ca^2+ mobilisation” value (hPAR2 [3]) was “biphasic inhibition curves” and the IC50 (hPAR2 [4]) was 0.794 µM. The IC50 (hPAR2 [5]; SLIGRL-NH2, 1321N1-hPAR2 cells, mean ± s.e.m., read-out: Ca^2+ flux (hPAR2) pIC50 (converted)) was 0.00501 µM.

For `C[C@@H](C1CCCCC1)n1c(-c2cc3c(cc2Br)OCO3)nc2cc(C(=O)Nc3ccc(C#N)cc3)ccc21` [AZ3451], the Kb (hPAR2 [2]; determined with Eu-tagged-2f-LIGRLO(dtpa)-NH2, read-out: equilibrium dissociation constant pKA / pKB (converted)) was 0.126 µM, the Ki (hPAR2 [2]; earlier manuscript version quoted by reviewer, read-out: Ki) was 0.12 µM and the “shape of inhibition of trypsin-induced Ca^2+ mobilisation” value (hPAR2 [3]) was “biphasic inhibition curves”. The remaining activity at 0.03 µM (hPAR2 [3]; log[compound], M -7.52288, individual data points, read-out: trypsin Ca^2+ mobilisation, antagonist response, Fig 1g source data) was 71.7%, the remaining activity at 0.01 µM (hPAR2 [3]; log[compound], M -8, individual data points, read-out: trypsin Ca^2+ mobilisation, antagonist response, Fig 1g source data) was 68% and the remaining activity at 0.003 µM (hPAR2 [3]; log[compound], M -8.52288, individual data points, read-out: trypsin Ca^2+ mobilisation, antagonist response, Fig 1g source data) was 73%. For the same compound, the remaining activity at 0.001 µM (hPAR2 [3]; log[compound], M -9, individual data points, read-out: trypsin Ca^2+ mobilisation, antagonist response, Fig 1g source data) was 78.8%, the remaining activity at 0.0003 µM (hPAR2 [3]; log[compound], M -9.52288, individual data points, read-out: trypsin Ca^2+ mobilisation, antagonist response, Fig 1g source data) was 82.9% and the remaining activity at 0.0001 µM (hPAR2 [3]; log[compound], M -10, individual data points, read-out: trypsin Ca^2+ mobilisation, antagonist response, Fig 1g source data) was 99.7%. It also gave an IC50 (hPAR2 [3]; read-out: inhibition of trypsin activation of PAR2 signalling, biphasic, pIC50 first phase (converted)) of 0.00316 µM, an IC50 (hPAR2 [3]; read-out: inhibition of trypsin activation of PAR2 signalling, biphasic, pIC50 second phase (converted)) of 1 µM and an IC50 (hPAR2 [4]) of 0.363 µM. The remaining activity at 0.37 µM (hPAR2 [4]; log[compound], M -6.4318, individual data points, read-out: SLIGRL-NH2 phosphorylation of ERK1/2, antagonist response, Fig 1e source data) was 45.7%, the “Ca^2+ mobilisation tested as agonist, Fig 1c source data” value (from here on “Ca^2+ mobilisation tested as agonist”) (hPAR2 [1]; M -4.38018) was 2.619 and -1.693 and 12.8149 and 8.844 and 5.039 and the “Ca^2+ mobilisation tested as agonist” value (hPAR2 [1]; M -4.88008) was 6.334 and 5.142 and -5.002 and 2.343 and 2.365. For the same compound, the “Ca^2+ mobilisation tested as agonist” value (hPAR2 [1]; M -5.38018) was 7.004 and 3.992 and 6.097 and 3.93 and 1.406, the “Ca^2+ mobilisation tested as agonist” value (hPAR2 [1]; M -5.88008) was 0.5481 and 1.501 and 3.614 and 4.082 and 2.434 and the “Ca^2+ mobilisation tested as agonist” value (hPAR2 [1]; M -6.38007) was 1.705 and 0.03194 and -3.0303 and 2.1164 and 2.6397. For the same compound, the “Ca^2+ mobilisation tested as agonist” value (hPAR2 [1]; M -6.88008) was 1.523 and 0.2236 and 5.2939 and 1.134 and 0.3771, the “Ca^2+ mobilisation tested as agonist” value (hPAR2 [1]; M -7.37997) was 1.949 and 4.9505 and 1.716 and -0.3779 and 3.12 and the “Ca^2+ mobilisation tested as agonist” value (hPAR2 [1]; M -7.88008) was 3.289 and 0.09582 and 3.3954 and 1.814 and 4.697. For the same compound, the “Ca^2+ mobilisation tested as agonist” value (hPAR2 [1]; M -8.37986) was 0.7917 and -0.8623 and -2.957 and 0.7559 and 2.503, the “Ca^2+ mobilisation tested as agonist” value (hPAR2 [1]; M -8.87976) was 1.34 and -1.757 and 1.643 and 4.989 and 1.8855 and the “agonist activity (tested as agonists)” value (hPAR2 [1]; Ca^2+ assay and other signalling assays) was “no effect; also recorded: no agonist activity”. The IC50 (hPAR2 [5]; Ca^2+ assay, earlier manuscript version quoted by reviewer, read-out: IC50) was 0.0028 µM and the remaining activity at 0.001319 µM (hPAR2 [5]; log[compound], M -8.87976, individual data points, read-out: SLIGRL-NH2 Ca^2+ mobilisation, antagonist response, Fig 1c source data) was 77.4%.
